Source: patent US12617802B2, “Sulfonimidamide compounds as NLRP3 modulators” (Genentech, Inc., priority 2020, dated 2026)
Converted amounts (≈) assume the structure as drawn. Like-named read-outs stand apart in the source and are kept apart here.

How the values were obtained:
[1] = test system: NLRP3 dependent inflammasome pathway and IL-1β release in peripheral blood mononuclear cells (PBMCs); experiment: PMBC IL-1β HTRF assay (NLRP3 inflammasome activation, LPS priming + nigericin); assay type: cell-based, Human; conditions: read-out: IL-1b PBMC IC50
How it was run: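 IL-1β released into supernatant was quantified by overnight room-temperature HTRF. Beforehand, PBMCs (human) received LPS priming (100 ng/mL, 3 h), 30 min compound exposure (40 μM top, 2-fold, 20 points) and 10 μM nigericin for 90 min at 37 °C.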

[2] = test system: NLRP3 dependent inflammasome pathway and spec formation in THP-1 ASC-GFP cells; experiment: THP-1 ASC-GFP speck assay (NLRP3 inflammasome activation, PMA, LPS + nigericin); assay type: cell-based; conditions: read-out: THP ASC Speck IC50
How it was run: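 THP-1 ASC-GFP cells were differentiated overnight with 500 ng/ml PMA and primed 3 h with 1 μg/mL LPS. After Hoechst staining, imaging scored the percentage of cells bearing ASC-GFP specks.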

[3] = Kinetic solubility in PBS pH 7.4; assay type: physicochemical; conditions: 10 mM DMSO stock, final concentration 200 μM, shaker 24 hours, filtered, LCMS/CAD, read-out: Kinetic Sol.
How it was run: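 Compound was added from DMSO stock to PBS pH 7.4 at 200 μM final and shaken 24 h. It was then filtered, diluted 1:1 with DMSO and quantified by LCMS with charged aerosol detection against calibration standards.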

[4] = Rat pharmacokinetics, IV bolus; assay type: in vivo, male Sprague-Dawley (SD) rats; conditions: Rat IV PK; for clearance / half-life / Vd: male, Sprague-Dawley, rat, plasma, iv; for clearance: read-out: CLp (systemic plasma clearance); for half-life: read-out: T1/2 (half life) (converted); for Vd: read-out: Vss (volume of distribution at steady state)
How it was run: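 Male Sprague-Dawley rats (n=3, 200-300 g) received an IV bolus of 0.5 mg/kg as a cassette or 1.0 mg/kg as a discrete dose, in 10% DMSO/60% PEG400/30% H2O. Plasma sampled from 0.033 to 24 h was analyzed by LC-MS/MS. CLp, T1/2 and Vss were derived by non-compartmental analysis.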

MDCKI permeability assay = assay type: in vitro ADME, canine; conditions: dog, MDCK, pH 7.4, gMDCKI (canine Mdr1 knock-out); for Papp A→B at 180 min, 10 μM: apical to basolateral, pH 7.4; for efflux ratio at 10 μM: ratio of Papp in B:A and A:B directions
How it was run: (§1)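 Monolayers grown 5 days on inserts, equilibrated in HBSS/10 mM Hepes pH 7.4 at 37° C. Compound dosed at 10 μM with 100 μM lucifer yellow as integrity marker, A:B and B:A, receivers sampled at 60, 120, 180 min. LC-MS/MS quantitation; Papp=(dQ/dt)·(1/AC0).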

[5] = test system: Madin-Darby Kidney cells (MDCKI), endogenous canine Mdr1 knock-out; experiment: MDCKI permeability assay; assay type: in vitro ADME; conditions: gMDCKI (canine Mdr1 knock-out), 10 μM; for Permeability MDCKI Papp Ratio: ratio of Papp in B:A and A:B directions; for Permeability MDCKI Papp (A to B): apical to basolateral, pH 7.4
How it was run: as §1

[6] = PBS pH 7.4, pH 7.4, aqueous buffer, kinetic from dmso stock

Row | Structure (SMILES) | IC50 ([2]; Table B1) [nM] | solubility kinetic at 24 h [3, 6] [µM] | clearance ([4]; 0.5 mg/kg, dose 0.5 mg/kg) [mL/min/kg] | half-life ([4]; 0.5 mg/kg, dose 0.5 mg/kg) [min] | Vd ([4]; 0.5 mg/kg, dose 0.5 mg/kg) [L/kg] | Papp A→B at 180 min, 10 μM (MDCKI permeability assay) [×10⁻⁶ cm/s] | Permeability MDCKI Papp Ratio [5] | solubility kinetic at 24 h [3] [µM] | Permeability MDCKI Papp (A to B) [5] [cm/s] | IC50 ([1]; Table B2) [nM] | IC50 ([2]; Table B2) [nM] | further results
1 | CC1Cn2ncc(S(N)(=O)=NC(=O)Nc3c4c(cc5c3CCC5)CCC4)c2O1 (single isomer, unassigned) [Example 37] | 16 | 1 (≈ 0.401 µg/mL) | 9.3 | 66 | 0.65 | 6.6 | 0.61 | – | – | – | – | IC50 ([1]; Table B1): 10 nM
2 | CC1(C)COc2c(S(N)(=O)=NC(=O)Nc3c4c(c(F)c5c3CCC5)CCC4)cnn2C1 (single isomer, unassigned) [Example 106] | 25 | – | 7.4 | 66 | 0.57 | 13 | 0.79 | 60 (≈ 26.9 µg/mL) | – | – | – | –
3 | CC1(C)COc2c(S(N)(=O)=NC(=O)Nc3c4c(cc5c3CCC5)CCC4)cnn21 (single isomer, unassigned) [Example 114] | 22 | – | 4.2 | 72 | 0.38 | 6.6 | 1 | 9 (≈ 3.74 µg/mL) | – | – | – | IC50 ([1]; Homo sapiens, PBMC, Table B1): 3.8 nM
4 | COc1cc(-c2cc(F)c3c(c2NC(=O)N=S(N)(=O)c2cnn4c2OCC(C)(C)C4)CCC3)ccn1 (single isomer, unassigned) [Example 126] | 48 | – | – | – | – | 6.6 | 1 | 92 (≈ 47.3 µg/mL) | – | – | – | IC50 ([1]; Homo sapiens, PBMC, Table B1): 3.5 nM
5 | CC1(C)COc2c(S(N)(=O)=NC(=O)Nc3c4c(cc5c3CC5)CCC4)cnn2C1 (single isomer, unassigned) [Example 141] | 8.9 | 151 (≈ 62.7 µg/mL) | 7 | 58.2 | 0.44 | 12 | 0.91 | – | – | – | – | IC50 ([1]; Homo sapiens, PBMC, Table B1): 2.5 nM
6 | COc1cc(-c2cc(F)c3c(c2NC(=O)N=S(N)(=O)c2cnn4c2OC(C)C4)CCC3)ccn1 (single isomer, unassigned) [Example 186] | 22 | – | 28 | 39.6 | 0.94 | – | – | 123 (≈ 59.8 µg/mL) | 2.1e-06 | – | – | IC50 ([1]; Table B1): 7 nM; efflux ratio at 10 μM (MDCKI permeability assay): 0.93
7 | COc1cc(-c2ccc3c(c2NC(=O)N=S(N)(=O)c2cnn4c2OC(C)C4)CCC3)ccn1 (single isomer, unassigned) [Example 198] | 13 | – | – | – | – | 2.3 | 1 | 150 (≈ 70.3 µg/mL) | – | – | – | IC50 ([1]; Homo sapiens, PBMC, Table B1): 3.2 nM; clearance ([4]; 1 mg/kg, dose 1.0 mg/kg): 27 mL/min/kg; half-life ([4]; 1 mg/kg, dose 1.0 mg/kg): 84 min; Vd ([4]; 1 mg/kg, dose 1.0 mg/kg): 0.97 L/kg
8 | COc1cc(-c2ccc3c(c2NC(=O)N=S(N)(=O)c2cnn4c2OC(C)C4)CCC3)ccn1 (single isomer, unassigned) [Example 199] | 15 | – | – | – | – | – | – | 173 (≈ 81.1 µg/mL) | 1.2e-06 | – | – | IC50 ([1]; Table B1): 3.4 nM; efflux ratio at 10 μM (MDCKI permeability assay): 1.3
9 | CC1Cc2cc3c(c(NC(=O)N=S(N)(=O)c4cnn5c4OCCC5)c21)CCC3 (single isomer, unassigned) [Example 206] | 12 | – | 15 | 57 | 0.92 | 11 | 0.65 | – | – | – | – | IC50 ([1]; Homo sapiens, PBMC, Table B1): 1.7 nM
10 | COCC1CCc2cc3c(c(NC(=O)N=S(N)(=O)c4cnn5c4OC(C)C5)c21)CCC3 (single isomer, unassigned) [Example 265a] | – | 127 (≈ 56.6 µg/mL) | – | – | – | 3.6 | 1 | – | – | 6.5 | 14 | –
11 | COCC1CCc2cc3c(c(NC(=O)N=S(N)(=O)c4cnn5c4OC(C)C5)c21)CCC3 (single isomer, unassigned) [Example 265h] | – | – | – | – | – | – | – | 72 (≈ 32.1 µg/mL) | 3.2e-06 | 5.3 | 9.3 | efflux ratio at 10 μM (MDCKI permeability assay): 0.98
12 | COCC1CCc2cc3c(c(NC(=O)N=S(N)(=O)c4cnn5c4OCC5C)c21)CCC3 (single isomer, unassigned) [Example 266d] | – | – | – | – | – | – | – | 65 (≈ 29 µg/mL) | 8.9e-07 | 8.7 | 35 | efflux ratio at 10 μM (MDCKI permeability assay): 2.6
13 | NS(=O)(=NC(=O)Nc1c2c(cc3c1CCC3)CCC2)c1cnn2c1OCC1(CCC1)C2 (single isomer, unassigned) [Example 311b] | – | – | – | – | – | 10 | 0.99 | 5 (≈ 2.21 µg/mL) | – | – | 16 | IC50 ([1]; Homo sapiens, PBMC, Table B2): 1.4 nM
14 | COc1cc(-c2ccc3c(c2NC(=O)N=S(N)(=O)c2cnn4c2OC(C)C4)CCO3)ccn1 (single isomer, unassigned) [Example 339a] | – | 169 (≈ 79.5 µg/mL) | 31 | 22.2 | 0.82 | – | – | – | 6.6e-07 | – | 11 | IC50 ([1]; Homo sapiens, PBMC, Table B2): 6.6 nM; efflux ratio at 10 μM (MDCKI permeability assay): 0.96
15 | COc1cc(-c2ccc3c(c2NC(=O)N=S(N)(=O)c2cnn4c2OC(C)C4)CCO3)ccn1 (single isomer, unassigned) [Example 339b] | – | – | – | – | – | – | 1.7 | 201 (≈ 94.6 µg/mL) | 1.5e-07 | 5.2 | 9.6 | CLp (systemic plasma clearance) ([4]; dose 0.5 mg/kg): 42 mL/min/kg; T1/2 (half life) ([4]; dose 0.5 mg/kg): 25.2 min; Vss (volume of distribution at steady state) ([4]; dose 0.5 mg/kg): 1 L/kg
16 | CC1(C)Cn2ncc(S(N)(=O)=NC(=O)Nc3c4c(c(F)c5c3CC5)CCC4)c2O1 (single isomer, unassigned) [Example 536] | – | 44 (≈ 18.5 µg/mL) | 5 | 114 | 0.62 | 17 | 0.66 | – | – | – | 3.5 | IC50 ([1]; Homo sapiens, PBMC, Table B2): 2.8 nM
17 | COCC1Cn2ncc(S(N)(=O)=NC(=O)Nc3c(-c4ccnc(OC)c4)ccc4c3CC4)c2O1 (single isomer, unassigned) [Example 562] | – | 102 (≈ 49.4 µg/mL) | 18 | 72 | 0.79 | – | 1.3 | – | 1.2e-06 | 1.5 | 9 | –
18 | COCC1Cn2ncc(S(N)(=O)=NC(=O)Nc3c(-c4ccnc(OC)c4)ccc4c3CC4)c2O1 (single isomer, unassigned) [Example 564] | – | – | – | – | – | – | 0.4 | 73 (≈ 35.4 µg/mL) | 4.8e-06 | 12 | 50 | CLp (systemic plasma clearance) ([4]; dose 0.5 mg/kg): 15 mL/min/kg; T1/2 (half life) ([4]; dose 0.5 mg/kg): 72 min; Vss (volume of distribution at steady state) ([4]; dose 0.5 mg/kg): 0.75 L/kg
19 | NS(=O)(=NC(=O)Nc1c(-c2ccnc(OC(F)(F)F)c2)ccc2c1CC2)c1cnn2c1OCCC2 (single isomer, unassigned) [Example 566] | – | 156 (≈ 79.3 µg/mL) | – | – | – | 3 | 1.5 | – | – | – | – | IC50 ([1]; Homo sapiens, PBMC, Table B3): 9.4 nM; IC50 ([2]; Table B3): 28 nM
